Experimental data taken from patent US11007503B2, “Systems and methods for a cooled nitric oxide generator” (The General Hospital Corporation, priority 2017, dated 2021).

System: rabbits with acute pulmonary hypertension

| Structure (SMILES) | RVSP at one min after breathing NO (electrically generated NO (20, 40 or 80 ppm) produced on inspiration by prototype generator, 50% O2, RVSP 30 mmHg before NO breathing, FIG. 14) [mmHg] | right ventricular systolic pressure (RVSP) after U46619 infusion (anesthetized rabbits, continuous infusion over 60 mins, RVSP increased from baseline 14±2 mmHg) |
| --- | --- | --- |
| [N]=O [NO, nitric oxide] | 24 | – |
| CCCCC[C@H](O)/C=C/[C@@H]1[C@@H](C/C=C\CCCC(=O)O)[C@H]2CO[C@@H]1C2 [U46619] | – | 28-30 mmHg |
